In the NIST ThermoML archive (doi:10.1016/j.jct.2017.11.017):
Numbers after ± are expanded uncertainties. Each block holds one compound with its values, some of them ahead of it.

Assay: activity coefficient (dimensionless); of the first substance listed, at infinite dilution; xn = mol fraction of the nth substance listed
Conditions: 101.33 kPa, Liquid, Chromatography, x1 = 0

Structure (SMILES): C=C(C)c1ccccc1 [(1-methylethenyl)benzene] + C[n+]1ccn(CCCO)c1.N#CN=C=[N-]
activity coefficient (318.15 K): 10.2 ± 0.7 | activity coefficient (328.15 K): 10.9 ± 0.7 | activity coefficient (338.15 K): 11.5 ± 0.8 | activity coefficient (348.15 K): 12.1 ± 0.8 | activity coefficient (358.15 K): 12.7 ± 0.9 | activity coefficient (368.15 K): 13.3 ± 0.9

Structure (SMILES): CCC(C)(C)OC [2-methoxy-2-methylbutane] + C[n+]1ccn(CCCO)c1.N#CN=C=[N-]
activity coefficient (318.15 K): 36.8 ± 2.5 | activity coefficient (328.15 K): 37 ± 2.5 | activity coefficient (338.15 K): 37.2 ± 2.5 | activity coefficient (348.15 K): 37.5 ± 2.6 | activity coefficient (358.15 K): 37.7 ± 2.6 | activity coefficient (368.15 K): 38.1 ± 2.6

Structure (SMILES): C=CCCCCCC [oct-1-ene] + C[N+]1(CCCO)CCOCC1.N#C[N-]C#N
activity coefficient (298.15 K): 1170 ± 81 | activity coefficient (308.15 K): 937 ± 65 | activity coefficient (318.15 K): 764 ± 53 | activity coefficient (328.15 K): 635 ± 44 | activity coefficient (338.15 K): 534 ± 37 | activity coefficient (348.15 K): 453 ± 31

Structure (SMILES): C=CCCCCCCCC [1-decene] + C[N+]1(CCCO)CCOCC1.N#C[N-]C#N
activity coefficient (308.15 K): 1640 ± 110 | activity coefficient (318.15 K): 1460 ± 100 | activity coefficient (328.15 K): 1300 ± 89 | activity coefficient (338.15 K): 1160 ± 80 | activity coefficient (348.15 K): 1050 ± 72 | activity coefficient (358.15 K): 952 ± 66 | activity coefficient (368.15 K): 875 ± 60

Structure (SMILES): CCC(C)O (centres undefined) [butan-2-ol] + C[n+]1ccn(CCCO)c1.N#CN=C=[N-]
activity coefficient (318.15 K): 2.74 ± 0.19 | activity coefficient (328.15 K): 2.72 ± 0.19 | activity coefficient (338.15 K): 2.72 ± 0.19 | activity coefficient (348.15 K): 2.72 ± 0.19 | activity coefficient (358.15 K): 2.7 ± 0.18 | activity coefficient (368.15 K): 2.71 ± 0.18

Structure (SMILES): CCOCC [diethyl ether] + C[n+]1ccn(CCCO)c1.N#CN=C=[N-]
activity coefficient (318.15 K): 20.3 ± 1.4 | activity coefficient (328.15 K): 20.3 ± 1.4 | activity coefficient (338.15 K): 20.5 ± 1.4 | activity coefficient (348.15 K): 20.6 ± 1.4 | activity coefficient (358.15 K): 20.7 ± 1.4 | activity coefficient (368.15 K): 20.8 ± 1.4

Structure (SMILES): C#CCCC [1-pentyne] + C[N+]1(CCCO)CCOCC1.N#C[N-]C#N
activity coefficient (308.15 K): 24.2 ± 1.7 | activity coefficient (318.15 K): 23.6 ± 1.6 | activity coefficient (328.15 K): 23.1 ± 1.6 | activity coefficient (338.15 K): 22.7 ± 1.6 | activity coefficient (348.15 K): 22.4 ± 1.5 | activity coefficient (358.15 K): 22 ± 1.5 | activity coefficient (368.15 K): 21.7 ± 1.5

Structure (SMILES): CCOC(C)=O [ethyl acetate] + C[n+]1ccn(CCCO)c1.N#CN=C=[N-]
activity coefficient (318.15 K): 5.72 ± 0.39 | activity coefficient (328.15 K): 5.95 ± 0.41 | activity coefficient (338.15 K): 6.18 ± 0.42 | activity coefficient (348.15 K): 6.36 ± 0.43 | activity coefficient (358.15 K): 6.61 ± 0.45 | activity coefficient (368.15 K): 6.86 ± 0.47

Structure (SMILES): CC#N [acetonitrile] + C[N+]1(CCCO)CCOCC1.N#C[N-]C#N
activity coefficient (318.15 K): 1.25 ± 0.08 | activity coefficient (328.15 K): 1.29 ± 0.08 | activity coefficient (338.15 K): 1.33 ± 0.09 | activity coefficient (348.15 K): 1.37 ± 0.09 | activity coefficient (358.15 K): 1.4 ± 0.09 | activity coefficient (368.15 K): 1.45 ± 0.1

Structure (SMILES): CC(C)O [propan-2-ol] + C[N+]1(CCCO)CCOCC1.N#C[N-]C#N
activity coefficient (318.15 K): 2.85 ± 0.19 | activity coefficient (328.15 K): 2.78 ± 0.19 | activity coefficient (338.15 K): 2.72 ± 0.19 | activity coefficient (348.15 K): 2.67 ± 0.18 | activity coefficient (358.15 K): 2.64 ± 0.18 | activity coefficient (368.15 K): 2.6 ± 0.18

Structure (SMILES): C#CCCCCC [1-heptyne] + C[N+]1(CCCO)CCOCC1.N#C[N-]C#N
activity coefficient (308.15 K): 82.9 ± 5.7 | activity coefficient (318.15 K): 79.8 ± 5.5 | activity coefficient (328.15 K): 76.7 ± 5.3 | activity coefficient (338.15 K): 74 ± 5.1 | activity coefficient (348.15 K): 72 ± 4.9 | activity coefficient (358.15 K): 69.8 ± 4.8 | activity coefficient (368.15 K): 68.1 ± 4.7

Structure (SMILES): CCCOCCC [dipropyl ether] + C[N+]1(CCCO)CCOCC1.N#C[N-]C#N
activity coefficient (308.15 K): 218 ± 15 | activity coefficient (318.15 K): 202 ± 14 | activity coefficient (328.15 K): 189 ± 13 | activity coefficient (338.15 K): 176 ± 12 | activity coefficient (348.15 K): 166 ± 11 | activity coefficient (358.15 K): 157 ± 11 | activity coefficient (368.15 K): 148 ± 10

Structure (SMILES): Cc1cccc(C)c1 [1,3-dimethylbenzene] + C[N+]1(CCCO)CCOCC1.N#C[N-]C#N
activity coefficient (318.15 K): 24.1 ± 1.6 | activity coefficient (328.15 K): 24.1 ± 1.6 | activity coefficient (338.15 K): 24.2 ± 1.7 | activity coefficient (348.15 K): 24.3 ± 1.7 | activity coefficient (358.15 K): 24.3 ± 1.7 | activity coefficient (368.15 K): 24.5 ± 1.7

Structure (SMILES): C=C(C)c1ccccc1 [(1-methylethenyl)benzene] + C[N+]1(CCCO)CCOCC1.N#C[N-]C#N
activity coefficient (318.15 K): 18.1 ± 1.2 | activity coefficient (328.15 K): 18.9 ± 1.3 | activity coefficient (338.15 K): 19.5 ± 1.3 | activity coefficient (348.15 K): 20.1 ± 1.4 | activity coefficient (358.15 K): 20.7 ± 1.4 | activity coefficient (368.15 K): 21.3 ± 1.5

Structure (SMILES): C1CCCCC1 [cyclohexane] + C[N+]1(CCCO)CCOCC1.N#C[N-]C#N
activity coefficient (308.15 K): 381 ± 26 | activity coefficient (318.15 K): 319 ± 22 | activity coefficient (328.15 K): 260 ± 18 | activity coefficient (338.15 K): 219 ± 15 | activity coefficient (348.15 K): 184 ± 13 | activity coefficient (358.15 K): 159 ± 11 | activity coefficient (368.15 K): 138 ± 9

Structure (SMILES): CCC(C)O (centres undefined) [butan-2-ol] + C[N+]1(CCCO)CCOCC1.N#C[N-]C#N
activity coefficient (318.15 K): 4.46 ± 0.3 | activity coefficient (328.15 K): 4.35 ± 0.3 | activity coefficient (338.15 K): 4.27 ± 0.29 | activity coefficient (348.15 K): 4.2 ± 0.29 | activity coefficient (358.15 K): 4.15 ± 0.28 | activity coefficient (368.15 K): 4.09 ± 0.28

Structure (SMILES): CCC(=O)OC [methyl propanoate] + C[n+]1ccn(CCCO)c1.N#CN=C=[N-]
activity coefficient (318.15 K): 5.29 ± 0.36 | activity coefficient (328.15 K): 5.48 ± 0.37 | activity coefficient (338.15 K): 5.73 ± 0.39 | activity coefficient (348.15 K): 5.92 ± 0.4 | activity coefficient (358.15 K): 6.14 ± 0.42 | activity coefficient (368.15 K): 6.34 ± 0.43

Structure (SMILES): CCCCCCCCCC [decane] + C[N+]1(CCCO)CCOCC1.N#C[N-]C#N
activity coefficient (308.15 K): 2530 ± 180 | activity coefficient (318.15 K): 2220 ± 150 | activity coefficient (328.15 K): 1980 ± 140 | activity coefficient (338.15 K): 1770 ± 120 | activity coefficient (348.15 K): 1590 ± 110 | activity coefficient (358.15 K): 1430 ± 99 | activity coefficient (368.15 K): 1310 ± 90

Structure (SMILES): CCO [ethanol] + C[N+]1(CCCO)CCOCC1.N#C[N-]C#N
activity coefficient (318.15 K): 1.71 ± 0.11 | activity coefficient (328.15 K): 1.66 ± 0.11 | activity coefficient (338.15 K): 1.61 ± 0.11 | activity coefficient (348.15 K): 1.57 ± 0.1 | activity coefficient (358.15 K): 1.54 ± 0.1 | activity coefficient (368.15 K): 1.51 ± 0.1

activity coefficient (298.15 K): 357 ± 25 | activity coefficient (308.15 K): 319 ± 22 | activity coefficient (318.15 K): 286 ± 20 | activity coefficient (328.15 K): 257 ± 18 | activity coefficient (338.15 K): 233 ± 16
Structure (SMILES): CCCCCC [hexane] + C[n+]1ccn(CCCO)c1.N#CN=C=[N-]

Structure (SMILES): C=COC(C)=O [vinyl acetate] + C[n+]1ccn(CCCO)c1.N#CN=C=[N-]
activity coefficient (318.15 K): 4.73 ± 0.32 | activity coefficient (328.15 K): 4.92 ± 0.34 | activity coefficient (338.15 K): 5.12 ± 0.35 | activity coefficient (348.15 K): 5.3 ± 0.36 | activity coefficient (358.15 K): 5.49 ± 0.37 | activity coefficient (368.15 K): 5.68 ± 0.39

Structure (SMILES): CCCCCCC [heptane] + C[N+]1(CCCO)CCOCC1.N#C[N-]C#N
activity coefficient (298.15 K): 1540 ± 110 | activity coefficient (308.15 K): 1290 ± 89

Structure (SMILES): C1CCCCCCC1 [cyclooctane] + C[N+]1(CCCO)CCOCC1.N#C[N-]C#N
activity coefficient (308.15 K): 571 ± 39 | activity coefficient (318.15 K): 478 ± 33 | activity coefficient (328.15 K): 408 ± 28 | activity coefficient (338.15 K): 345 ± 24 | activity coefficient (348.15 K): 298 ± 20 | activity coefficient (358.15 K): 260 ± 18 | activity coefficient (368.15 K): 229 ± 16

Structure (SMILES): CCCCO [butan-1-ol] + C[N+]1(CCCO)CCOCC1.N#C[N-]C#N
activity coefficient (318.15 K): 4.66 ± 0.32 | activity coefficient (328.15 K): 4.5 ± 0.31 | activity coefficient (338.15 K): 4.39 ± 0.3 | activity coefficient (348.15 K): 4.26 ± 0.29 | activity coefficient (358.15 K): 4.17 ± 0.28 | activity coefficient (368.15 K): 4.08 ± 0.28

Structure (SMILES): CCCO [propan-1-ol] + C[N+]1(CCCO)CCOCC1.N#C[N-]C#N
activity coefficient (318.15 K): 2.63 ± 0.18 | activity coefficient (328.15 K): 2.58 ± 0.18 | activity coefficient (338.15 K): 2.55 ± 0.17 | activity coefficient (348.15 K): 2.52 ± 0.17 | activity coefficient (358.15 K): 2.49 ± 0.17 | activity coefficient (368.15 K): 2.46 ± 0.17

Structure (SMILES): Cc1ccc(C)cc1 [1,4-dimethylbenzene] + C[N+]1(CCCO)CCOCC1.N#C[N-]C#N
activity coefficient (318.15 K): 23.2 ± 1.6 | activity coefficient (328.15 K): 23.3 ± 1.6 | activity coefficient (338.15 K): 23.5 ± 1.6 | activity coefficient (348.15 K): 23.7 ± 1.6 | activity coefficient (358.15 K): 23.8 ± 1.6 | activity coefficient (368.15 K): 24.1 ± 1.6

Structure (SMILES): C#CCCC [1-pentyne] + C[n+]1ccn(CCCO)c1.N#CN=C=[N-]
activity coefficient (298.15 K): 11.3 ± 0.8 | activity coefficient (308.15 K): 11.5 ± 0.8 | activity coefficient (318.15 K): 11.7 ± 0.8 | activity coefficient (328.15 K): 11.8 ± 0.8 | activity coefficient (338.15 K): 12 ± 0.8 | activity coefficient (348.15 K): 12.1 ± 0.8 | activity coefficient (358.15 K): 12.3 ± 0.8

Structure (SMILES): CCc1ccccc1 [ethylbenzene] + C[n+]1ccn(CCCO)c1.N#CN=C=[N-]
activity coefficient (318.15 K): 14.6 ± 1 | activity coefficient (328.15 K): 14.9 ± 1 | activity coefficient (338.15 K): 15.3 ± 1 | activity coefficient (348.15 K): 15.5 ± 1.1 | activity coefficient (358.15 K): 15.9 ± 1.1 | activity coefficient (368.15 K): 16.1 ± 1.1

Structure (SMILES): CC(C)OC(C)C [diisopropyl ether] + C[N+]1(CCCO)CCOCC1.N#C[N-]C#N
activity coefficient (298.15 K): 393 ± 27 | activity coefficient (308.15 K): 306 ± 21 | activity coefficient (318.15 K): 244 ± 17
